Results reported in patent publication US20260285855A1, “HETEROARYL DERIVATIVES AS DDRS INHIBITORS” (CHIESI FARMACEUTICI S.P.A., priority 2023, published 2026).

Experiments:
DDR2 = biological target: T1, DDR2 (Homo sapiens, UniProt Q16832); assay: LanthaScreen Europium Kinase Binding assay, DDR2; conditions: 5 nM DDR2, 10 nM Kinase Tracer 178, 1 h at rt; Ki from IC50 by Cheng-Prusoff; read-out: Ki DDR2
T1 construct: purchased Life Technologies
T1 sequence (Q16832 22-855): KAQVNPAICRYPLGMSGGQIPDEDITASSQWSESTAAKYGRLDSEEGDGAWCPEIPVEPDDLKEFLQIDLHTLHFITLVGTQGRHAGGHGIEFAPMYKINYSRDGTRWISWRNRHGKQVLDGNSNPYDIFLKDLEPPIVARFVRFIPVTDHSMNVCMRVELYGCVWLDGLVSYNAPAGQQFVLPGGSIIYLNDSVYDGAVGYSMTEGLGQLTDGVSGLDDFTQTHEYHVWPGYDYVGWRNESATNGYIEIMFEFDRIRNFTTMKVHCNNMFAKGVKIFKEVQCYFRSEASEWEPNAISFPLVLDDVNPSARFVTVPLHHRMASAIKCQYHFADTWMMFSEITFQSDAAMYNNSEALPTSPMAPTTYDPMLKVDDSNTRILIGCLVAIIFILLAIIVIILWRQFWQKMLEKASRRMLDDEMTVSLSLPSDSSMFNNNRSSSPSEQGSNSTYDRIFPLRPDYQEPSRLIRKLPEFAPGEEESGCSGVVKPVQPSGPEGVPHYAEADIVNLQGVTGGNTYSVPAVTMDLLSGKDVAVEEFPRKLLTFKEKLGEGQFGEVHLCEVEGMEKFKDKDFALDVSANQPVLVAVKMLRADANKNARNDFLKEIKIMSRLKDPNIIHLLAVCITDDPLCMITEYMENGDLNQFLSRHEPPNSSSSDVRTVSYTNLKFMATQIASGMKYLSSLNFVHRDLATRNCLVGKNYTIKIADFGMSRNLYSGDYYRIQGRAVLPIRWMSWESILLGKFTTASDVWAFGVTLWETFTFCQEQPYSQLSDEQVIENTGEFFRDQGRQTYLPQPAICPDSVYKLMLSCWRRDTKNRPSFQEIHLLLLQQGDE
Protocol: (§1) DDR1 and DDR2 binding assays were performed using Life Technologies LanthaScreen™ Europium Kinase Binding assay. […] IC50 values were determined in GraphPad Prism 7.0 software, using 4 parameter model: log (inhibitor) vs. response. IC50 values were converted in Ki using the Cheng-Prusoff equation (Ki-IC50/(1+ [Tracer]/Kd).

DDR1 = biological target: T2, DDR1 (Homo sapiens, UniProt Q08345); assay: LanthaScreen Europium Kinase Binding assay, DDR1; conditions: 5 nM DDR1, 20 nM Kinase Tracer 178, 1 h at rt; Ki from IC50 by Cheng-Prusoff; read-out: Ki DDR1
T2 construct: purchased Carna Biosciences
T2 sequence (Q08345 19-913): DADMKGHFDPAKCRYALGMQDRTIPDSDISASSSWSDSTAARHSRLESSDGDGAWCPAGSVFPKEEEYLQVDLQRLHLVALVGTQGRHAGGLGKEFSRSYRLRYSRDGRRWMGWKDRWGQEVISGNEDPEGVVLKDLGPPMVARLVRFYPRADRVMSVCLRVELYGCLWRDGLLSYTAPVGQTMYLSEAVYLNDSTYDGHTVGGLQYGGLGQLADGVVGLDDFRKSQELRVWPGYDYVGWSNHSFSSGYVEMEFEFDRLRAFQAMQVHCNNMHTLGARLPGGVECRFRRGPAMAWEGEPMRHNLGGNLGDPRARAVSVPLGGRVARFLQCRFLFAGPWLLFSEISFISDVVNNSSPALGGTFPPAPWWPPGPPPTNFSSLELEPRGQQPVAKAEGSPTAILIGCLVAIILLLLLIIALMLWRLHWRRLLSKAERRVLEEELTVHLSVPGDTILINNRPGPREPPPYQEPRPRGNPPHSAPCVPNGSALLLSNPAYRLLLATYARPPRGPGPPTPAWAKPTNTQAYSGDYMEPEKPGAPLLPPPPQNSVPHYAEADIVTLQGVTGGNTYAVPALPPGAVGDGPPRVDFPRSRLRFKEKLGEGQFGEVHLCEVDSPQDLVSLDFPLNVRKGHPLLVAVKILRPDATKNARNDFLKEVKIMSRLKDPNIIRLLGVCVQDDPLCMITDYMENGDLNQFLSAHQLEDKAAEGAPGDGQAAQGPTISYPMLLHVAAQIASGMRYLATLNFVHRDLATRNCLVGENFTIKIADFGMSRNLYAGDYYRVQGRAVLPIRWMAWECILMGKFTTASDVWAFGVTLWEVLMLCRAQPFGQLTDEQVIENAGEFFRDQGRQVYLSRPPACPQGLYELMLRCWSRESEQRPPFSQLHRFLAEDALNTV
Protocol: as §1

SMILES | Ki (DDR2) | Ki (DDR1)
Cn1ccn2ncc(C(=O)N3CC4(CC(NC(=O)Nc5cccc(OC(F)F)c5)C4)C3)c12 [Example 67, 1-(3-(difluoromethoxy)phenyl)-3-(2-(1-methyl-1H-imidazo[1,2-b]pyrazole-7-carbonyl)-2-azaspiro[3.3]heptan-6-yl)urea] | 5 to 25 nM | < 5 nM
COc1ccc(OC(F)(F)F)cc1NC(=O)NC1CC2(C1)CN(C(=O)c1ncnc3ccsc13)C2 [Example 62, 1-(2-methoxy-5-(trifluoromethoxy)phenyl)-3-(2-(thieno[3,2-d]pyrimidine-4-carbonyl)-2-azaspiro[3.3]heptan-6-yl)urea] | 5 to 25 nM | < 5 nM
CSCn1ccn2ncc(C(=O)N3CC4(CC(NC(=O)Nc5cccc(C(F)(F)F)c5)C4)C3)c12 [Example 196, 1-(2-(1-((methylthio)methyl)-1H-imidazo[1,2-b]pyrazole-7-carbonyl)-2-azaspiro[3.3]heptan-6-yl)-3-(3-(trifluoromethyl)phenyl)urea] | 5 to 25 nM | < 5 nM
COc1c(CO)cc(OC(F)(F)F)cc1NC(=O)N(C)C1CC2(C1)CN(c1cnc3[nH]ncc3c1)C2 [Example 218, 1-(2-(1H-pyrazolo[3,4-b]pyridin-5-yl)-2-azaspiro[3.3]heptan-6-yl)-3-(3-(hydroxymethyl)-2-methoxy-5-(trifluoromethoxy)phenyl)-1-methylurea] | 5 to 25 nM | < 5 nM
CN(C(=O)Nc1cncc(SC(F)(F)F)c1)C1CC2(C1)CN(C(=O)c1cnn3ccn(C)c13)C2 [Example 207, 1-methyl-1-(2-(1-methyl-1H-imidazo[1,2-b]pyrazole-7-carbonyl)-2-azaspiro[3.3]heptan-6-yl)-3-(5-((trifluoromethyl)thio)pyridin-3-yl)urea] | 5 to 25 nM | < 5 nM
Cn1ccn2ncc(C(=O)N3CC4(CC(NC(=O)Nc5cccc(S(F)(F)(F)(F)F)c5)C4)C3)c12 [Example 42, 1-(2-(1-methyl-1H-imidazo[1,2-b]pyrazole-7-carbonyl)-2-azaspiro[3.3]heptan-6-yl)-3-(3-(pentafluoro-16-sulfaneyl)phenyl)urea] | 5 to 25 nM | < 5 nM
COc1ccc(OC(F)(F)F)cc1NC(=O)NC1CC2(C1)CN(C(=O)c1cnc3cnccn13)C2 [Example 57, 1-(2-(imidazo[1,2-a]pyrazine-3-carbonyl)-2-azaspiro[3.3]heptan-6-yl)-3-(2-methoxy-5-(trifluoromethoxy)phenyl)urea] | 5 to 25 nM | < 5 nM
Cc1ncc(NC(=O)N(C)C2CC3(C2)CN(C(=O)c2cnn4ccn(C)c24)C3)cc1C(F)(F)F [Example 180, 1-methyl-1-(2-(1-methyl-1H-imidazo[1,2-b]pyrazole-7-carbonyl)-2-azaspiro[3.3]heptan-6-yl)-3-(6-methyl-5-(trifluoromethyl)pyridin-3-yl)urea] | 5 to 25 nM | < 5 nM
CN(C(=O)Nc1cc(C(F)(F)F)cnn1)C1CC2(C1)CN(C(=O)c1cnn3ccn(C)c13)C2 [Example 208, 1-methyl-1-(2-(1-methyl-1H-imidazo[1,2-b]pyrazole-7-carbonyl)-2-azaspiro[3.3]heptan-6-yl)-3-(5-(trifluoromethyl)pyridazin-3-yl)urea] | 25 to 100 nM | 5 to 25 nM
COc1ccc(OC(F)(F)F)cc1NC(=O)NC1CC2(C1)CN(C(=O)c1cnn3ccccc13)C2 [Example 68, 1-(2-methoxy-5-(trifluoromethoxy)phenyl)-3-(2-(pyrazolo[1,5-a]pyridine-3-carbonyl)-2-azaspiro[3.3]heptan-6-yl)urea] | 5 to 25 nM | < 5 nM

More lines, now with the values ahead:

Ki (DDR2) | Ki (DDR1) | SMILES
5 to 25 nM | < 5 nM | Cc1cc(NC(=O)N(C)C2CC3(C2)CN(C(=O)c2ncnc4[nH]ccc24)C3)cc(C(F)(F)F)c1 [Example 268, 1-(2-(7H-pyrrolo[2,3-d]pyrimidine-4-carbonyl)-2-azaspiro[3.3]heptan-6-yl)-1-methyl-3-(3-methyl-5-(trifluoromethyl)phenyl)urea]
5 to 25 nM | 5 to 25 nM | O=C(Nc1cccc(C(F)(F)F)c1)NC1CC2(C1)CN(Cc1cnc3[nH]ncc3c1)C2 [Example 12, 1-(2-((1H-pyrazolo[3,4-b]pyridine-5-yl)methyl)-2-azaspiro[3.3]heptan-6-yl)-3-(3-(trifluoromethyl)phenyl)urea]
5 to 25 nM | < 5 nM | Cn1ccn2ncc(C(=O)N3CC4(CC(NC(=O)Nc5cccc(C(F)F)c5)C4)C3)c12 [Example 63, 1-(3-(difluoromethyl)phenyl)-3-(2-(1-methyl-1H-imidazo[1,2-b]pyrazole-7-carbonyl)-2-azaspiro[3.3]heptan-6-yl)urea]
< 5 nM | < 5 nM | Cn1ccn2ncc(C(=O)N3CC4(CC(OC(=O)Nc5cccc(C(F)(F)F)c5)C4)C3)c12 [Example 143, 2-(1-methyl-1H-imidazo[1,2-b]pyrazole-7-carbonyl)-2-azaspiro[3.3]heptan-6-yl(3-(trifluoromethyl)phenyl)carbamate]
5 to 25 nM | < 5 nM | CCOc1ccc(C(F)(F)F)cc1NC(=O)N(C)C1CC2(C1)CN(C(=O)c1cnn3ccn(C)c13)C2 [Example 288, 3-(2-ethoxy-5-(trifluoromethyl)phenyl)-1-methyl-1-(2-(1-methyl-1H-imidazo[1,2-b]pyrazole-7-carbonyl)-2-azaspiro[3.3]heptan-6-yl)urea]
5 to 25 nM | < 5 nM | COc1ncc(C(F)(F)F)cc1NC(=O)NC1CC2(C1)CN(C(=O)c1cnn3ccsc13)C2 [Example 262, 1-(2-methoxy-5-(trifluoromethyl)pyridin-3-yl)-3-(2-(pyrazolo[5,1-b]thiazole-7-carbonyl)-2-azaspiro[3.3]heptan-6-yl)urea]
< 5 nM | < 5 nM | Cn1ccn2ncc(C(=O)N3CC4(CC(NC(=O)Nc5cc(C#N)cc(S(F)(F)(F)(F)F)c5)C4)C3)c12 [Example 119, 1-(3-cyano-5-(pentafluoro-16-sulfaneyl)phenyl)-3-(2-(1-methyl-1H-imidazo[1,2-b]pyrazole-7-carbonyl)-2-azaspiro[3.3]heptan-6-yl)urea]
< 5 nM | < 5 nM | Cn1ccn2ncc(C(=O)N3CC4(CC(CC(=O)Nc5cc(OC(F)(F)F)ccc5F)C4)C3)c12 [Example 276, N-(2-fluoro-5-(trifluoromethoxy)phenyl)-2-(2-(1-methyl-1H-imidazo[1,2-b]pyrazole-7-carbonyl)-2-azaspiro[3.3]heptan-6-yl)acetamide]
< 5 nM | < 5 nM | O=C(Nc1cc(OC(F)(F)F)ccn1)NC1CC2(C1)CN(C(=O)c1cnn3ccsc13)C2 [Example 97, 1-(2-(pyrazolo[5,1-b]thiazole-7-carbonyl)-2-azaspiro[3.3]heptan-6-yl)-3-(4-(trifluoromethoxy)pyridin-2-yl)urea]
< 5 nM | < 5 nM | O=C(Nc1cccc(C(F)(F)F)c1)NC1CC2(C1)CN(C(=O)c1cnc3sccn13)C2 [Example 96, 1-(2-(imidazo[2,1-b]thiazole-5-carbonyl)-2-azaspiro[3.3]heptan-6-yl)-3-(3-(trifluoromethyl)phenyl)urea]
< 5 nM | < 5 nM | CN(C(=O)Nc1cccc(S(F)(F)(F)(F)F)c1)C1CC2(C1)CN(C(=O)c1cnn3ccn(CCO)c13)C2 [Example 210, 1-(2-(1-(2-hydroxyethyl)-1H-imidazo[1,2-b]pyrazole-7-carbonyl)-2-azaspiro[3.3]heptan-6-yl)-1-methyl-3-(3-(pentafluoro-16-sulfaneyl)phenyl)urea]
